Measurements: US11819578B2, “Nanofiber scaffolds” (Trustees of Boston University, priority 2021, dated 2023)

How the values were obtained:
[1] = Release of small molecule cargo loaded in the PCL fibers; type: physicochemical
Protocol: FIG. 21 depicts FITC (50-500 ng) released from the fibers over the course of 90 days. FITC was loaded in the mixture of the PCL solution similar to grazoprevir loaded meshes. (n=4)
Doxorubicin was loaded in the mixture of the PCL solution similar to grazoprevir loaded meshes. (n=3)
When used with primary CD8+ HER2-targeted NS3 CAR T cells with the same grazoprevir-dependent CARs, the […] were excited (CD69 expression) when co-cultured with the meshes and HER2-expression NALM6 cells (FIG. 19).
The meshes ability to release doxorubicin over time was characterized as a functional delivery method for chemotherapeutic drugs.

[2] = cited from earlier work

period of release from the fibers ([1]; FITC 50-500 ng loaded in the PCL solution, n=4) [days]	period of release from the fibers ([1]; 500 ug doxorubicin loaded in the PCL solution, n=3) [days]	release over time in vitro ([1]; in vitro, in words)	SMILES	log P [2]
90	–	–	O=C1OC2(c3ccc(O)cc3Oc3cc(O)ccc32)c2ccc(N=C=S)cc21 [FITC]	4.8
–	–	–	C=C[C@@H]1C[C@]1(NC(=O)[C@@H]1C[C@@H]2CN1C(=O)[C@H](C(C)(C)C)NC(=O)O[C@@H]1C[C@H]1CCCCCc1nc3ccc(OC)cc3nc1O2)C(=O)NS(=O)(=O)C1CC1.O [grazoprevir]	4.7
–	28	several weeks to months	COc1cccc2c1C(=O)c1c(O)c3c(c(O)c1C2=O)C[C@@](O)(C(=O)CO)C[C@@H]3O[C@H]1C[C@H](N)[C@H](O)[C@H](C)O1 [doxorubicin]	–
